Test results as given in patent publication US6376480B1, “Vitamin D derivatives with substituents at C-25, process for their production, intermediate products and use for the production of pharmaceutical agents” (Schering Aktiengesellschaft, priority 1995, dated 2002).

Key:
[1] = biological target: T1, calcitriol receptor (Sus scrofa, UniProt A3RGC1); experiment: calcitriol-receptor test (competition with 3H-calcitriol); conditions: quotient of concentrations of test substance and calcitriol for 50% competition, receptor protein from intestines of juvenile pigs
T1 sequence (A3RGC1 1-427): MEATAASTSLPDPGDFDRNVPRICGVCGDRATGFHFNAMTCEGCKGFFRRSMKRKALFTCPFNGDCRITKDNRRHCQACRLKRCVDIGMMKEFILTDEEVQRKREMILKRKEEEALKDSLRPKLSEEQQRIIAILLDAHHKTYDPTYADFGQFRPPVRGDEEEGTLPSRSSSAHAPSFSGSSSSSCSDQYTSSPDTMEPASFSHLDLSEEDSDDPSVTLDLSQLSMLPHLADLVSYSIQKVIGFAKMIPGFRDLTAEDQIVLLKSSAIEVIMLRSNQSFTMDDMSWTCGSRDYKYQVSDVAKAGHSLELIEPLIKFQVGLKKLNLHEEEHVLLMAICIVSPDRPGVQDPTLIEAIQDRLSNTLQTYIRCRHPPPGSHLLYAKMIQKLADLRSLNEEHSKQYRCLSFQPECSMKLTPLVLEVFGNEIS
Protocol: The vitamin D activity of the substances according to the invention is determined with the aid of the calcitriol-receptor test. It is carried out with use of a specific receptor protein from the intestines of juvenile pigs.
Then, the samples are centrifuged at 10,000×g for 5 minutes at 4° C. The supernatant is decanted and measured in a β-counter after 1 hour of equilibration in Picofluor 15™.
The competition curves that are obtained with various concentrations of test substance as well as of reference substance (unlabeled calcitriol) at constant concentration of the reference substance (^3H-calcitriol) are placed in relation to one another and a competition factor (KF) is determined.
It is defined as a quotient of the concentrations of the respective test substance and the reference substance, which are necessary for 50% competition: [formula]

[2] = system: HL 60 cells; experiment: antagonism of the action of calcitriol in HL 60 cells; assay type: cell-based, human
[3] = system: HL 60 cells; experiment: differentiation induction of HL 60 cells to macrophages (NBT reduction); assay type: cell-based, human; conditions: DR = test substance dose/calcitriol dose for comparable semi-maximum effects; 96 hours incubation
Protocol: It is known in the literature (Mangelsdorf, D. J. et al., J. Cell. Biol. 98: 391-398 (1984)), that the treatment of human leukemia cells (promyelocyte cell line HL 60) in vitro with calcitriol induces the differentiation of cells to macrophages.
HL 60 cells are cultivated in tissue culture medium (RPMI 10% fetal calf serum) at 37° C. in an atmosphere of 5% CO2 in air.
For substance testing, the cells are centrifuged off, and 2.0×10^5 cells/ml in phenol red-free tissue culture medium is taken up. The test substances are dissolved in ethanol and diluted with tissue culture medium without phenol red to the desired concentration. The dilution stages are mixed with the cell suspension at a ratio of 1:10, and 100 μl each of this cell suspension that is mixed with substance is pipetted into an indentation of a 96-hole plate. For control, a cell suspension is mixed analogously with the solvent.
After incubation for 96 hours at 37° C. in 5% CO2 in air, 100 μl of an NBT-TPA solution (nitro blue tetrazolium (NBT), final concentration in the batch of 1 mg/ml, tetradecanoyl phorbolmyristate-13-acetate (TPA), final concentration in the batch of 2×10^−7 mol/l) is pipetted into each indentation of the 96-hole plate in the cell suspension.
By incubation for 2 hours at 37° C. and 5% CO2 in air, NBT is reduced to insoluble formazan because of the intracellular oxygen radical release, stimulated by TPA, in the cells that are differentiated to macrophages.
To complete the reaction, the indentations of the 96-hole plate are suctioned off, and the cells are affixed to the bottom of the plate by adding methanol and dried after affixing. To dissolve the intracellular formazan crystals that are formed, 100 μl of potassium hydroxide (2 mol/l) and 100 μl of dimethyl sulfoxide are pipetted into-each indentation and ultrasonically treated for 1 minute. The concentration of formazan is measured by spectrophotometry at 650 nm.
As a yardstick for the differentiation induction of HL 60 cells to macrophages, the concentration of formed formazan applies.

Structure (SMILES): C=C1/C(=C\C=C2/CCC[C@]3(C)[C@@H]([C@H](C)/C=C/[C@@H](O)C4(C(=O)CCCC)CC4)CC[C@@H]23)C[C@@H](O)C[C@@H]1O [Compound 6b, (5Z,7E,22E)-(1S,3R,24R)-25-(1-Oxopentyl)-26,27-cyclo-9,10-secocholesta-5,7,10(19),22-tetraene-1,3,24-triol]
- Competition Factor KF for Receptor Bonding [1]: 2
- antagonism of the action of calcitriol in HL 60 cells [2]: antagonize the action of calcitriol
- Dose Ratio for Differentiation Induction in HL 60 Cells [3]: 58

Structure (SMILES): C=C1/C(=C\C=C2/CCC[C@]3(C)[C@@H]([C@H](C)/C=C/[C@@H](O)C4(C(=O)CCCCC)CC4)CC[C@@H]23)C[C@@H](O)C[C@@H]1O [Compound 9b, (5Z,7E,22E)-(1S,3R,24R)-25-(1-Oxohexyl)-26,27-cyclo-9,10-secocholesta-5,7,10(19),22-tetraene-1,3,24-triol]
- Competition Factor KF for Receptor Bonding [1]: 3
- antagonism of the action of calcitriol in HL 60 cells [2]: antagonize the action of calcitriol
- Dose Ratio for Differentiation Induction in HL 60 Cells [3]: >180

Structure (SMILES): C=C1/C(=C\C=C2/CCC[C@]3(C)[C@@H]([C@H](C)/C=C/[C@@H](O)C4(C(=O)c5ccccc5)CC4)CC[C@@H]23)C[C@@H](O)C[C@@H]1O [Compound 10b, (5Z,7E,22E)-(1S,3R,24R)-25-benzoyl-26,27-cyclo-9,10-secocholesta-5,7,10(19),22-tetraene-1,3,24-triol]
- Competition Factor KF for Receptor Bonding [1]: 2
- Dose Ratio for Differentiation Induction in HL 60 Cells [3]: 6

Structure (SMILES): C=C1C(=CC=C2CCCC3(C)C2CCC3C(C)C=CC(O)C2(C(=O)C3CC3)CC2)CC(O)CC1O [Compound 12b, (5Z,7E,22E)-(1S,3R,24R)-25-(Cyclopropylcarbonyl)-26,27-cyclo-9,10-secocholesta-5,7,10(19),22-tetraene-1,3,24-triol]
- Competition Factor KF for Receptor Bonding [1]: 2
- Dose Ratio for Differentiation Induction in HL 60 Cells [3]: 0.2

Structure (SMILES): C=C1/C(=C\C=C2/CCC[C@]3(C)[C@@H]([C@H](C)/C=C/[C@@H](O)C4(C(=O)/C=C/CCC)CC4)CC[C@@H]23)C[C@@H](O)C[C@@H]1O [Compound 18b, [5Z,7E,22E,25(E)]-(1S,3R,24R)-25-(1-Oxo-2-hexenyl)-26,27-cyclo-9,10-secocholesta-5,7,10(19),22-tetraene-1,3,24-triol]
- Competition Factor KF for Receptor Bonding [1]: 2
- antagonism of the action of calcitriol in HL 60 cells [2]: antagonize the action of calcitriol
- Dose Ratio for Differentiation Induction in HL 60 Cells [3]: 330

Structure (SMILES): C=C1/C(=C\C=C2/CCC[C@]3(C)[C@@H]([C@H](C)/C=C/[C@@H](O)C4(/C=C/C(=O)OCC)CC4)CC[C@@H]23)C[C@@H](O)C[C@@H]1O [Compound 24b, [5Z,7E,22E,25(E)]-(1S,3R,24R)-25-(3-Ethoxy-3-oxo-1-propenyl)-26,27-cyclo-9,10-secocholesta-5,7,10(19),22-tetraene-1,3,24-triol]
- Competition Factor KF for Receptor Bonding [1]: 4
- antagonism of the action of calcitriol in HL 60 cells [2]: antagonize the action of calcitriol
- Dose Ratio for Differentiation Induction in HL 60 Cells [3]: >1000

Structure (SMILES): C=C1/C(=C\C=C2/CCC[C@]3(C)[C@@H]([C@H](C)/C=C/[C@@H](O)C4(/C=C/C(=O)OC(C)(C)C)CC4)CC[C@@H]23)C[C@@H](O)C[C@@H]1O [Compound 26b, [5Z,7E,22E,25(E)]-(1S,3R,24R)-25-[3-(1,1-Dimethylethoxy)-3-oxo-1-propenyl]-26,27-cyclo-9,10-secocholesta-5,7,10(19),22-tetraene-1,3,24-triol]
- Competition Factor KF for Receptor Bonding [1]: 4
- antagonism of the action of calcitriol in HL 60 cells [2]: antagonize the action of calcitriol
- Dose Ratio for Differentiation Induction in HL 60 Cells [3]: >1000

Structure (SMILES): C=C1C(=CC=C2CCCC3(C)C2CCC3C(C)(C)C=CC(O)C2(C(C)=O)CC2)CC(O)CC1O [Compound 33a, (5Z,7E,22E)-(1S,3R,24S)-25-acetyl-20-methyl-26,27-cyclo-9,10-secocholesta-5,7,10(19),22-tetraene-1,3,24-triol]
- Competition Factor KF for Receptor Bonding [1]: 4
- Dose Ratio for Differentiation Induction in HL 60 Cells [3]: 0.5

Structure (SMILES): C=C1C(=CC=C2CCCC3(C)C2CCC3C(C)(C)C=CC(O)C2(C(C)=O)CC2)CC(O)CC1O [Compound 33b, (5Z,7E,22E)-(1S,3R,24R)-25-acetyl-20-methyl-26,27-cyclo-9,10-secocholesta-5,7,10(19),22-tetraene-1,3,24-triol]
- Competition Factor KF for Receptor Bonding [1]: 4
- Dose Ratio for Differentiation Induction in HL 60 Cells [3]: 0.4

Structure (SMILES): C=C1C(=CC=C2CCCC3(C)C2CCC3C(C)(C)C=CC(O)C2(C(=O)CCC)CC2)CC(O)CC1O [Compound 35a, (5Z,7E,22E)-(1S,3R,24S)-20-methyl-25-(1-oxobutyl)-26,27-cyclo-9,10-secocholesta-5,7,10(19),22-tetraene-1,3,24-triol]
- Competition Factor KF for Receptor Bonding [1]: 7
- Dose Ratio for Differentiation Induction in HL 60 Cells [3]: 0.3

Structure (SMILES): C=C1C(=CC=C2CCCC3(C)C2CCC3C(C)(C)C=CC(O)C2(C(=O)CCC)CC2)CC(O)CC1O [Compound 35b, (5Z,7E,22E)-(1S,3R,24R)-20-methyl-25-(1-oxobutyl)-26,27-cyclo-9,10-secocholesta-5,7,10(19),22-tetraene-1,3,24-triol]
- Competition Factor KF for Receptor Bonding [1]: 2
- Dose Ratio for Differentiation Induction in HL 60 Cells [3]: 0.2

Structure (SMILES): C=C1/C(=C\C=C2/CCC[C@]3(C)[C@@H](C(C)(C)/C=C/[C@H](O)C4(C(=O)CCCCCCC)CC4)CC[C@@H]23)C[C@@H](O)C[C@@H]1O [Compound 43a, (5Z,7E,22E)-(1S,3R,24S)-20-methyl-25-(1-oxooctyl)-26,27-cyclo-9,10-secocholesta-5,7,10(19),22-tetraene-1,3,24-triol]
- Competition Factor KF for Receptor Bonding [1]: 48
- antagonism of the action of calcitriol in HL 60 cells [2]: antagonize the action of calcitriol
- Dose Ratio for Differentiation Induction in HL 60 Cells [3]: >1000

Structure (SMILES): C=C1/C(=C\C=C2/CCC[C@]3(C)[C@@H](C(C)(C)/C=C/[C@@H](O)C4(C(=O)CCCCCCC)CC4)CC[C@@H]23)C[C@@H](O)C[C@@H]1O [Compound 43b, (5Z,7E,22E)-(1S,3R,24R)-20-methyl-25-(1-oxooctyl)-26,27-cyclo-9,10-secocholesta-5,7,10(19),22-tetraene-1,3,24-triol]
- Competition Factor KF for Receptor Bonding [1]: 33
- antagonism of the action of calcitriol in HL 60 cells [2]: antagonize the action of calcitriol
- Dose Ratio for Differentiation Induction in HL 60 Cells [3]: >1000

Structure (SMILES): CC(=O)C1(C(O)C=CC(C)C2CCC3C(=CC=C4CC(O)CC(O)C4)CCCC32C)CC1 [Compound 55b, (7E,22E)-(1R,3R,24R)-25-Acetyl-26,27-cyclo-19-nor-9,10-secocholesta-5,7,22-triene-1,3,24-triol]
- Competition Factor KF for Receptor Bonding [1]: 4.5
- Dose Ratio for Differentiation Induction in HL 60 Cells [3]: 0.2

Structure (SMILES): CC(=O)C1(C(O)C=CC(C)(C)C2CCC3C(=CC=C4CC(O)CC(O)C4)CCCC32C)CC1 [Compound 81a, (7E,22E)-(1R,3R,24S)-25-Acetyl-20-methyl-26,27-cyclo-19-nor-9,10-secocholesta-5,7,22-triene-1,3,24-triol]
- Competition Factor KF for Receptor Bonding [1]: 10
- Dose Ratio for Differentiation Induction in HL 60 Cells [3]: 0.2

Structure (SMILES): CC(=O)C1(C(O)C=CC(C)(C)C2CCC3C(=CC=C4CC(O)CC(O)C4)CCCC32C)CC1 [Compound 81b, (7E,22E)-(1R,3R,24R)-25-acetyl-20-methyl-26,27-cyclo-19-nor-9,10-secocholesta-5,7,22-triene-1,3,24-triol]
- Competition Factor KF for Receptor Bonding [1]: 3
- Dose Ratio for Differentiation Induction in HL 60 Cells [3]: 0.1
